Measured values as given in the NIST ThermoML archive (doi:10.1016/j.jct.2015.03.011).
“And” between values parts separate entries of the source, which are not always exact repeats. Equal values may be shown once. Numbers after ± are expanded uncertainties.

Conditions: Liquid, Transpiration method

CC(N)CN (stereo unspecified) [1,2-propanediamine]
Conditions | vapor or sublimation pressure [kPa]
273.8 K | 0.2726 ± 0.017
274.9 K | 0.2967 ± 0.019
276.6 K | 0.3411 ± 0.021
277 K | 0.3482 ± 0.022
279.1 K | 0.4011 ± 0.025
279.7 K | 0.4205 ± 0.026
281.3 K | 0.4594 ± 0.029
282.7 K | 0.5281 ± 0.033
283.2 K | 0.5245 ± 0.032
285.3 K | 0.6214 ± 0.038
285.7 K | 0.6306 ± 0.039
287.3 K | 0.72 ± 0.045
288.7 K | 0.7897 ± 0.05
289.2 K | 0.8316 ± 0.052
291.2 K | 0.9464 ± 0.059
291.7 K | 0.9537 ± 0.06
293.1 K | 1.069 ± 0.067
294.7 K | 1.187 ± 0.074
295.2 K | 1.234 ± 0.077
297.1 K | 1.357 ± 0.084
297.6 K | 1.422 ± 0.089
299.1 K | 1.559 ± 0.098
299.6 K | 1.629 ± 0.1
301.2 K | 1.82 ± 0.11
301.7 K | 1.84 ± 0.12
303.2 K | 2.075 ± 0.13
303.7 K | 2.099 ± 0.13
305.7 K | 2.354 ± 0.15

CC(C)(N)CN [2-methyl-1,2-propanediamine]
Conditions | vapor or sublimation pressure
276 K | 0.2878 ± 0.018 kPa
276.6 K | 0.3031 ± 0.019 kPa
277.6 K | 0.3267 ± 0.021 kPa
278.1 K | 0.3442 ± 0.022 kPa
279.3 K | 0.3687 ± 0.023 kPa
280.6 K | 0.405 ± 0.026 kPa
282.4 K | 0.4569 ± 0.029 kPa and 0.4785 ± 0.03 kPa
283.2 K | 0.492 ± 0.031 kPa
284.5 K | 0.548 ± 0.034 kPa and 0.5301 ± 0.033 kPa
286 K | 0.5853 ± 0.037 kPa
288.4 K | 0.7053 ± 0.044 kPa
290.4 K | 0.7971 ± 0.05 kPa
292.5 K | 0.9233 ± 0.058 kPa
294.3 K | 1.052 ± 0.066 kPa
295.9 K | 1.144 ± 0.072 kPa
297.2 K | 1.299 ± 0.082 kPa
299 K | 1.422 ± 0.089 kPa
300.3 K | 1.575 ± 0.099 kPa
302 K | 1.752 ± 0.11 kPa
304.6 K | 2.037 ± 0.13 kPa
306.1 K | 2.247 ± 0.14 kPa
307.6 K | 2.451 ± 0.15 kPa
308.7 K | 2.62 ± 0.16 kPa
